Assay results reported in PMC5045712 (Bioorganic & medicinal chemistry, 2016).

Columns and labels:
B. anthracis DHOase [1] = molecular target: T1, B. anthracis DHOase (Bacillus anthracis, UniProt Q81WF0); details: cited from earlier work
[2] = molecular target: WT-DHOase (B. anthracis DHOase) (Bacillus anthracis, UniProt Q81WF0); assay type: biochemical
E. coli DHOase = details: cited from earlier work
B. anthracis DHOase [3] = molecular target: T1, B. anthracis DHOase; assay type: binding; details: for KD (equilibrium dissociation constant determined by SPR): 25 °C
B. anthracis DHOase [4] = molecular target: T1, B. anthracis DHOase; assay type: binding

T1 sequence (Q81WF0 whole entry, looked up): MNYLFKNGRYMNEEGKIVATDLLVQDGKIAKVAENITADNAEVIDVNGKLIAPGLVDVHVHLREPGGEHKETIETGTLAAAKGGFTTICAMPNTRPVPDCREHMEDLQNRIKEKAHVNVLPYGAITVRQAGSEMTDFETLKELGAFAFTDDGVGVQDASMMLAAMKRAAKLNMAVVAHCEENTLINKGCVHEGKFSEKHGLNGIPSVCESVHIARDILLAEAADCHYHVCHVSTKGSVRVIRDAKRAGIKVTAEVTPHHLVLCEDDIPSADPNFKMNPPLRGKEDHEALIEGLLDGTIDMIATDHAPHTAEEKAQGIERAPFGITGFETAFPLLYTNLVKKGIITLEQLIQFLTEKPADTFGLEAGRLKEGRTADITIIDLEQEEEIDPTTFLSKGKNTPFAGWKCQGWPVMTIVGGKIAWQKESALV
Chain of WT-DHOase (B. anthracis DHOase) (Q81WF0 whole entry, looked up): as above

Nc1c(C(=O)O)[nH]c(=O)[nH]c1=O [5-aminoorotate (AOA), 5-aminoorotate]
inhibition of B. anthracis DHOase (B. anthracis DHOase [1]): no inhibition

O=C(O)c1[nH]c(=O)[nH]c(=O)c1F [5-fluoroorotate (FOA), 5-fluoroorotate]
inhibition of B. anthracis DHOase (B. anthracis DHOase [1]): no inhibition

NC(=O)N[C@@H](CC(=O)O)C(=O)O [Ca-asp, carbamyl-asparate]
Km [2]: 112 ± 24 µM | kcat [2]: 2.1 ± 0.1 s⁻¹ | Km (E. coli DHOase): 1700 µM | kcat (E. coli DHOase): 160 ± 8 s⁻¹

CCC(=O)Nc1ccc(OC)cc1OC [Compound 4]
KD with 1 mM Ca-asp (B. anthracis DHOase [3]): remained the same | shift in melting temperature (Tm) (B. anthracis DHOase [4]): shows a shift in melting temperature

COc1ccc2[nH]c3c(c2c1)CCNC3 [Compound 6a]
KD with 1 mM Ca-asp (B. anthracis DHOase [3]): not affected | fold change of KD relative to compound 6 (B. anthracis DHOase [3]): ~ 1.5 fold

Cc1ccc2[nH]c3c(c2c1)CCNC3 [Compound 6b]
KD (equilibrium dissociation constant determined by SPR) (B. anthracis DHOase [3]): completely abolished

COc1ccc2[nH]c(CN)cc2c1 [Compound 6c]
KD (equilibrium dissociation constant determined by SPR) (B. anthracis DHOase [3]): no interaction

CSC1(NC#N)NCCc2c1[nH]c1ccc(F)cc21 (stereo not shown) [Compound 7]
KD with 1 mM Ca-asp (B. anthracis DHOase [3]): unable to be determined

COc1ccc2[nH]c3c(c2c1)CCNC3(NC#N)SC (stereo not shown) [Compound 7a]
fold change of KD relative to compound 6 (B. anthracis DHOase [3]): 18 fold

COc1ccc2[nH]c3c(c2c1)CN(C(C)=O)CC3 [Compound 8]
KD (equilibrium dissociation constant determined by SPR) (B. anthracis DHOase [3]): weaker

O=C1CC(C(=O)O)NC(=O)N1 (stereo not shown) [DHO, dihydroorotate]
Km [2]: 114 ± 16 µM | kcat [2]: 1.9 ± 0.1 s⁻¹ | Km (E. coli DHOase): 80 µM | kcat (E. coli DHOase): 100 ± 1.6 s⁻¹
